System: Chinese hamster ovary cells (CHO cells)
Assay: Evaluation of cellular uptake of FITC-labeled model drugs (flow cytometry, MFI)
Assay type: cell-based
Settings: 5 μg/mL, 2 hours incubation, n=3
Method: Cellular uptake evaluation of the model drugs described above was conducted using Examples 1 to 3 (polymeric compounds of Manufacturing Examples 1 to 3) or Comparative Examples 1 to 2 (compounds of Manufacturing Examples 4 and 5). A suspension of Ham's F-12 medium (manufactured by Fujifilm Wako Chemical Corporation) containing Chinese hamster ovary cells (CHO cells, 2×10^5 cells/mL) was prepared and seeded at 500μL/well to each well of a 24-well plate. The cells were incubated in a CO2 gas incubator (37° C., 5% CO2) for 24 hours.
Then, the compositions of the Examples and Comparative Examples (Table 1-6) were prepared by mixing 250 μL/well of Ham's F-12 medium containing the above model drugs and 250 μL/well of Ham's F-12 medium containing the manufacturing examples.
Then, the supernatant was removed from each well of the pre-cultured 24-well plate using an aspirator and the cells were washed twice with 500 μL/well of phosphate-buffered saline. Then, the aforementioned compositions were gently added to the wells and incubated in a carbon dioxide incubator for 2 hours. The number of experiments was n=3.
After 2 hours, the supernatants of medium were removed, and the cells were washed twice with 500 μL/well of phosphate-buffered saline. Then, 100 μL/well of trypsin-EDTA solution (0.25% trypsin, 1 mmol/L EDTA solution, Life Technologies) was added, and cultured CHO cells were detached from 24-well plates.
Then, 400 μL/well of trypan blue solution (Fujifilm Wako Chemical Corporation) was added to suspend the cells, and the cells were collected in microtubes. The collected cell suspensions were passed through a cell strainer, and the mean fluorescence intensity (MFI) was measured by flow cytometry. The cells without the polymeric compound (only the model drug was added) were used as controls.
While only the model drug introduced into the cells emits fluorescence. MFI represents the arithmetic average of the fluorescence intensity per cell, and a larger value of MFI indicates a more efficient intracellular uptake of the model drug.

**Q.** Which results are given for O=C([O-])CCCCCCCNC(=O)c1ccccc1O.[Na+] [Comparative Example 2, Sodium salcaprozate]?
**A.** MFI ± S.D. (Model drug: FITC-CTB (Molecular weight 11,000)): 3.7 ± 0.1; MFI ± S.D. (Model drug: FITC-INS (Molecular weight 5,800)): 19.7 ± 0.2; MFI ± S.D. (Model drug: FITC-IgG (Molecular weight 150,000)): 3.2 ± 0.1; MFI ± S.D. (Model drug: FITC-IgM (Molecular weight 900,000)): 3.1 ± 0.2; MFI ± S.D. (Model drug: FITC-OVA (Molecular weight 45,000)): 3.6 ± 0.4; MFI ± S.D. (Model drug: FITC-Tf (Molecular weight 77,000)): 6.7 ± 0.2
